Measured values from patent publication US20080032229A1, “BOTTOM ANTIREFLECTIVE COATINGS” (priority 2003, published 2008).
Like-named read-outs stand apart in the source and are kept apart here.

Columns and labels:
[1] = Solubility of bases in propylene glycol monomethyl ether acetate (shaken overnight, visual inspection); type: physicochemical; details: for Solubility, 0.2 wt. % in PGMEA: 0.2 wt. % solution in propylene glycol monomethyl ether acetate, shaken ~20 hours at room temperature; for Solubility, 0.2 wt. % in PGMEA / Solubility, 0.1 wt. % in PGMEA: visual inspection; for Solubility, 0.1 wt. % in PGMEA: diluted to 0.10 wt. % in propylene glycol monomethyl ether acetate; for Solubility in the solvent of the photoresist (propylene glycol monomethyl ether acetate): concentration not given
Description: Several bases were evaluated for solubility in propylene glycol monomethyl ether acetate, the most commonly used solvent in photoresist compositions. A 0.2 wt. % solution of each base was made with propylene glycol monomethyl ether acetate in glass vials. The vials were then placed on a shaker and allowed to shake overnight (˜20 hours) at room temperature. The vials were then visually inspected. If the vials were clear without any haze, cloudiness or solids or crystals at the bottom of the vial, then the base was considered soluble in propylene glycol monomethyl ether acetate. If the vials had haze, cloudiness or solids or crystals at the bottom of the vial, the base was considered not soluble in propylene glycol monomethyl ether acetate. For those vials which contained base at 0.2 wt. % and were considered not soluble, additional propylene glycol monomethyl ether acetate was added to dilute the solution to 0.15 wt. %, or 0.10 wt. %. The diluted vials were then evaluated as discussed above. No further dilutions were made beyond 0.10 wt. %.

[2] = Solubility of bases in the antireflective coating solvent 4-hydroxy-4-methyl-2-pentanone; type: physicochemical
Description: For this experiment, base A is aminophylline, which is considered an insoluble base in the solvent of the photoresist (in this experiment, propylene glycol monomethyl ether acetate) but soluble in the solvent of the antireflective coating (in this experiment, 4-hydroxy-4-methyl-2-pentanone); base B is tridodecylamine, which is soluble in both the solvent of the photoresist (in this experiment, propylene glycol monomethyl ether acetate) and the solvent of the antireflective coating (in this experiment, 4-hydroxy-4-methyl-2-pentanone). The bases were evaluated alone or as mixtures in the antireflective coatings. The antireflective coatings were prepared using a co-polymer of benzyl methacrylate—mevalonic lactone methacrylate. The photoacid generator (PAG) was triphenylsulfonium nonaflate, and the aforementioned base(s) and 4-hydroxy-4-methyl-2-pentanone as the solvent completed the antireflective coating formulations. The PAG content was kept at 1.7 wt. % of total solids of the antireflective coating formulations and the antireflective coating formulations were 1.65% total solids.

Solubility, 0.2 wt. % in PGMEA [1] | Solubility, 0.1 wt. % in PGMEA [1] | Solubility in the solvent of the antireflective coating (4-hydroxy-4-methyl-2-pentanone) [2] | Structure (SMILES) | Solubility in the solvent of the photoresist (propylene glycol monomethyl ether acetate) [1] | Solubility in the solvent of the antireflective coating (4-hydroxy-4-methyl-2-pentanone) ([2]; concentration not given)
Not soluble | Not soluble | – | Nc1nc(N)c2[nH]cnc2n1 [2,6-Diaminopurine] | – | –
Not soluble | Soluble | – | CN(C)c1ncnc2nc[nH]c12 [6-(Dimethylamino)purine] | – | –
Not soluble | Not soluble | – | Cn1c(=O)c2[nH]c(Cl)nc2n(C)c1=O [8-Chlorotheophyllline] | – | –
Not soluble | Not soluble | – | Nc1ncnc2nc[nH]c12 [Adenine] | – | –
Not soluble | Not soluble | – | Nc1nc2nc[nH]c2c(=O)[nH]1 [Guanine] | – | –
Not soluble | Not soluble | – | c1ncc2[nH]cnc2n1 [Purine] | – | –
– | – | soluble | CCCCCCCCCCCCN(CCCCCCCCCCCC)CCCCCCCCCCCC [tridodecylamine, reference compound] | soluble | –

Structure (SMILES) | Solubility, 0.2 wt. % in PGMEA [1] | Solubility, 0.1 wt. % in PGMEA [1] | Solubility in the solvent of the antireflective coating (4-hydroxy-4-methyl-2-pentanone) [2] | Solubility in the solvent of the photoresist (propylene glycol monomethyl ether acetate) [1] | Solubility in the solvent of the antireflective coating (4-hydroxy-4-methyl-2-pentanone) ([2]; concentration not given)
Cn1c(=O)c2[nH]cnc2n(C)c1=O [Aminophylline, reference compound] | Not soluble | Not soluble | – | insoluble | soluble
Cn1c(=O)c2[nH]cnc2n(C)c1=O [Theophylline, reference compound] | Not soluble | Soluble | – | – | –
